US9850283B2, “Macrocyclic inhibitors of the PD-1/PD-L1 and CD80(B7-1)/PD-L1 protein/protein interactions” (BRISTOL-MYERS SQUIBB COMPANY, priority 2013, dated 2017)
pIC50: −log10 of the molar value. Read-outs that look alike come from different tables or passages of the source. Starred links: 1 amine or outer side, 2 acyl side, 3 side chain; linkers in the order of their positions; H or OH if unused. Positions of bridges follow the written chain, without caps; N, C: chain ends. Non-standard residues stand in square brackets, D forms with d. Residues, ends and D or L forms follow the SMILES beside them. ξ: configuration not given here. X13 = COc1ccc2c(O[C@@H]3C[C@@H](C(=O)[*:2])N([*:1])C3)nccc2c1; X9 = O=C([C@@H]1C[C@@H](Oc2nc3ccccc3cc2Br)CN1[*:1])[*:2]; Trp(1-CH2COOH) = N[C@@H](Cc1cn(CC(=O)O)c2ccccc12)C(=O)O; Trp(2-Ph) = N[C@@H](Cc1c(-c2ccccc2)[nH]c2ccccc12)C(=O)O; Tyr(3-Br) = N[C@@H](Cc1ccc(O)c(Br)c1)C(=O)O; cisHyp = O=C(O)[C@@H]1C[C@H](O)CN1; Hyp = O=C(O)[C@@H]1C[C@@H](O)CN1; Pip(4-aza) = O=C(O)[C@@H]1CNCCN1; dNMeNle = CCCC[C@@H](NC)C(=O)O; NMeNle = CCCC[C@H](NC)C(=O)O; ξR = N=C(N)NCCCC(N)C(=O)O; NMeA = CN[C@@H](C)C(=O)O; Dab = NCC[C@H](N)C(=O)O; Dap = NC[C@H](N)C(=O)O; Sar = CNCC(=O)O

Tests used:
[1] = biological target: T1, Human PD-L1/PD-1 (Homo sapiens, UniProt Q9NZQ7); test: HTRF PD-1-Ig/PD-L1-His binding assay (human PD-L1)
T1 construct: made in house; host or cells: HEK293T
Summary of the method: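 Readout: time-resolved FRET between Eu cryptate-labeled anti-Ig (1 nM final) and APC-labeled anti-His (20 nM final) antibodies. These detect interaction of Fc-fused PD-1 with His-tagged human PD-L1 in dPBS containing 0.1% BSA and 0.05% Tween-20.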

[2] = biological target: T2, LK35.2-hPD-L1 cells / PE-labeled PD-1-Ig (Homo sapiens, UniProt Q9NZQ7); test: LK35.2-hPD-L1 cell binding high-content screening assay; type: cell-based; conditions: cell binding assay, cell line not given
T2 construct: expressed in transfected cells; host or cells: LK35.2 mouse B cell line
Summary of the method: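 Binding of PE-conjugated human PD-1-Ig (1 nM final) to human PD-L1 stably expressed on a mouse B-cell line (LK35.2) was measured by high-content imaging after washes. Compound and labeled PD-1-Ig were co-incubated 1 h at 37 °C with cells in RPMI/10% FCS.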

[3] = cluster symbol, read-out: HTRF IC50 cluster
[4] = cluster symbol, read-out: CBA IC50 cluster

T2 sequence (Q9NZQ7 19-290): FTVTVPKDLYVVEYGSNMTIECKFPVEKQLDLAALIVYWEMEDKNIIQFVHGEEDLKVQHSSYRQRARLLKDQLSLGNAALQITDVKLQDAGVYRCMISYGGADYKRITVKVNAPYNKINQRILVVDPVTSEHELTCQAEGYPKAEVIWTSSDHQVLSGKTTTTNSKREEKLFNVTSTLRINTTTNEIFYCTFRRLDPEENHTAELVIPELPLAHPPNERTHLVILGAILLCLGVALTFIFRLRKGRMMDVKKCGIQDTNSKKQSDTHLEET
T1 sequence (Q9NZQ7 with tags, fused parts or gaps): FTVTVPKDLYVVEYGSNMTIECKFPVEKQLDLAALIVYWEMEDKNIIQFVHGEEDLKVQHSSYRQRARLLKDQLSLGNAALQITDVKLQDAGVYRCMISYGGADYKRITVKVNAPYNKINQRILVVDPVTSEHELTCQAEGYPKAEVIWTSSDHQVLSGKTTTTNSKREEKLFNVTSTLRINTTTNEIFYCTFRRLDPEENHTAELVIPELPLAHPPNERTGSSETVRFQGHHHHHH

**Q.** Which results are given for `CCCC[C@H]1C(=O)N2CCC[C@@H]2C(=O)N[C@@H](CCN)C(=O)N[C@H](C(=O)NCC(N)=O)CSCC(=O)N[C@@H](Cc2ccc(O)c(Br)c2)C(=O)N(C)[C@@H](C)C(=O)N[C@@H](CC(N)=O)C(=O)N2CCC[C@H]2C(=O)N[C@@H](Cc2cnc[nH]2)C(=O)N[C@@H](CC(C)C)C(=O)N2C[C@H](O)C[C@H]2C(=O)N[C@@H](Cc2c[nH]c3ccccc23)C(=O)N[C@@H](CCN)C(=O)N[C@@H](Cc2c[nH]c3ccccc23)C(=O)N1C` [Example 6044] ({CH2CO}-[Tyr(3-Br)][NMeA]NPHL[Hyp]W[Dab]W[NMeNle][dP][Dab]CG-NH2; thioether N-14)?
**A.** pIC50 [1, 3]: 7.52 to 8.17; pIC50 [2, 4]: < 7.13

**Q.** How did the pIC50 ([1]; value given instead of cluster, read-out: HTRF IC50 value) turn out when `CCCC[C@H]1C(=O)N2CCC[C@@H]2C(=O)N[C@@H](CCN)C(=O)N[C@H](C(=O)NCC(N)=O)CSCC(=O)N[C@@H](Cc2ccc(O)c(Br)c2)C(=O)N(C)[C@@H](C)C(=O)N[C@@H](CC(N)=O)C(=O)N2CCC[C@H]2C(=O)N[C@@H](Cc2cnc[nH]2)C(=O)N[C@@H](CC(C)C)C(=O)N(C)CC(=O)N[C@@H](Cc2c[nH]c3ccccc23)C(=O)N[C@@H](CCN)C(=O)N[C@@H](Cc2c[nH]c3ccccc23)C(=O)N1C` [Example 6045] ({CH2CO}-[Tyr(3-Br)][NMeA]NPHL[Sar]W[Dab]W[NMeNle][dP][Dab]CG-NH2; thioether N-14) was run?
**A.** 7.05

**Q.** What about the pIC50 ([2]; value given instead of cluster, read-out: CBA IC50 value) of the same compound?
**A.** 6.20

**Q.** How did the pIC50 [1, 3] turn out when `CCCC[C@@H]1C(=O)N[C@@H](CC(C)C)C(=O)N[C@H](C(=O)NCC(N)=O)CSCC(=O)N[C@@H](Cc2ccc(O)cc2)C(=O)N(C)[C@@H](C)C(=O)N[C@@H](CC(N)=O)C(=O)N2CCC[C@H]2C(=O)N[C@@H](CN)C(=O)N[C@@H](CC(C)C)C(=O)N2C[C@@H](O)C[C@H]2C(=O)N[C@@H](Cc2c[nH]c3ccccc23)C(=O)N[C@@H](CCN)C(=O)N[C@@H](Cc2cn(CC(=O)O)c3ccccc23)C(=O)N(C)[C@@H](CCCC)C(=O)N1C` [Example 6046] ({CH2CO}-Y[NMeA]NP[Dap]L[cisHyp]W[Dab][Trp(1-CH2COOH)][NMeNle][dNMeNle]LCG-NH2; thioether N-14) was run?
**A.** 8.17 to 9.41

**Q.** What about the pIC50 [2, 4] of the same compound?
**A.** 8.33 to 9.80

**Q.** With `CCCC[C@H]1C(=O)N(C)[C@@H](CCCC)C(=O)N[C@@H](CC(C)C)C(=O)N[C@H](C(=O)NCC(N)=O)CSCC(=O)N[C@@H](Cc2ccc(O)cc2)C(=O)N(C)[C@@H](C)C(=O)N[C@@H](CC(N)=O)C(=O)N2CCC[C@H]2C(=O)N[C@@H](CN)C(=O)N[C@@H](CC(C)C)C(=O)N2C[C@H](Oc3nccc4cc(OC)ccc34)C[C@H]2C(=O)N[C@@H](Cc2c[nH]c3ccccc23)C(=O)N[C@@H](CCN)C(=O)N[C@@H](Cc2c[nH]c3ccccc23)C(=O)N1C` [Example 6048] ({CH2CO}-Y[NMeA]NP[Dap]L[X13]W[Dab]W[NMeNle][NMeNle]LCG-NH2; thioether N-14) as the compound, how does the pIC50 [1, 3] read?
**A.** 7.52 to 8.17

**Q.** And the pIC50 [2, 4]?
**A.** 7.14 to 8.32

**Q.** What does the source list for `CCCC[C@H]1C(=O)N(C)[C@@H](CCCC)C(=O)N[C@@H](CC(C)C)C(=O)N[C@H](C(=O)NCC(N)=O)CSCC(=O)N[C@@H](Cc2ccc(O)cc2)C(=O)N(C)[C@@H](C)C(=O)N[C@@H](CC(N)=O)C(=O)N2CCC[C@H]2C(=O)N[C@@H](CN)C(=O)N[C@@H](CC(C)C)C(=O)N2C[C@H](Oc3nc4ccccc4cc3Br)C[C@H]2C(=O)N[C@@H](Cc2c[nH]c3ccccc23)C(=O)N[C@@H](CCN)C(=O)N[C@@H](Cc2c[nH]c3ccccc23)C(=O)N1C` [Example 6049] ({CH2CO}-Y[NMeA]NP[Dap]L[X9]W[Dab]W[NMeNle][NMeNle]LCG-NH2; thioether N-14)?
**A.** pIC50 [1, 3]: 8.17 to 9.41; pIC50 [2, 4]: 7.14 to 8.32

**Q.** With `CCCC[C@H]1C(=O)N(C)[C@@H](CCCC)C(=O)N[C@@H](CC(C)C)C(=O)N[C@H](C(=O)NCC(N)=O)CSCC(=O)N[C@@H](Cc2ccc(O)cc2)C(=O)N(C)[C@@H](C)C(=O)N[C@@H](CC(N)=O)C(=O)N2CCC[C@H]2C(=O)N[C@@H](CN)C(=O)N[C@@H](CC(C)C)C(=O)N2CCNC[C@H]2C(=O)N[C@@H](Cc2c[nH]c3ccccc23)C(=O)N[C@@H](CCN)C(=O)N[C@@H](Cc2c[nH]c3ccccc23)C(=O)N1C` [Example 6050] ({CH2CO}-Y[NMeA]NP[Dap]L[Pip(4-aza)]W[Dab]W[NMeNle][NMeNle]LCG-NH2; thioether N-14) as the compound, how does the pIC50 [1, 3] read?
**A.** 8.17 to 9.41

**Q.** And the pIC50 [2, 4]?
**A.** 7.14 to 8.32

**Q.** `CCCC[C@H]1C(=O)N(C)[C@@H](CCCC)C(=O)NC(CCCNC(=N)N)C(=O)N[C@H](C(=O)NCC(N)=O)CSCC(=O)N[C@@H](Cc2ccc(O)cc2)C(=O)N(C)[C@@H](C)C(=O)N[C@@H](CC(N)=O)C(=O)N2CCC[C@H]2C(=O)N[C@@H](Cc2cnc[nH]2)C(=O)N[C@@H](CC(C)C)C(=O)N2CCC[C@H]2C(=O)N[C@@H](Cc2c[nH]c3ccccc23)C(=O)N[C@@H](CO)C(=O)N[C@@H](Cc2c(-c3ccccc3)[nH]c3ccccc23)C(=O)N1C` (some centres unmarked) [Example 7001] ({CH2CO}-Y[NMeA]NPHLPWS[Trp(2-Ph)][NMeNle][NMeNle][ξR]CG-NH2; thioether N-14) was tested. Which pIC50 [1, 3] did it give?
**A.** 8.17 to 9.41

**Q.** What about the pIC50 [2, 4] of the same compound?
**A.** 8.33 to 9.80
